Measurements from ChEMBL document CHEMBL1201862, “PubChem BioAssay data set” (2004).
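These data come from cells grown in 96-well plates and exposed to compound for 48 hours at five concentrations. Abbreviation: GI50, concentration required for 50% inhibition of growth.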 Calls of active or inactive are those of the source. Rule as the data show it: active = GI50 up to about 1.1 µM and inactive = higher.

Experiments:
Test in all cases: NCI tumour cell line growth inhibition, 48 h
[1] = test system: A549
[2] = test system: SK-OV-3
[3] = test system: T47D
[4] = test system: SK-MEL-5
[5] = test system: U-251
[6] = test system: EKVX
[7] = test system: MDA-MB-435
[8] = test system: HCC 2998
[9] = test system: COLO 205
[10] = test system: Hs-578T
[11] = test system: MCF7
[12] = test system: NCI-H522
[13] = test system: KM12
[14] = test system: OVCAR-4
[15] = test system: MDA-N
[16] = test system: K562
[17] = test system: SF-295
[18] = test system: SNB-19
[19] = test system: RPMI-8226
[20] = test system: CAKI-1
[21] = test system: MDA-MB-231
[22] = test system: HOP-92
[23] = test system: ACHN
[24] = test system: SF-268
[25] = test system: LOX IMVI
[26] = test system: HCT-15
[27] = test system: NCI-H460
[28] = test system: UACC-62
[29] = test system: 786-0
[30] = test system: PC-3
[31] = test system: SW-620
[32] = test system: RXF 393
[33] = test system: UACC-257
[34] = test system: SR
[35] = test system: A498
[36] = test system: SNB-75
[37] = test system: IGROV-1
[38] = test system: BT-549
[39] = test system: Malme-3M
[40] = test system: NCI-H23
[41] = test system: OVCAR-5
[42] = test system: NCI/ADR-RES
[43] = test system: MOLT-4
[44] = test system: SF-539
[45] = test system: DU-145
[46] = test system: SK-MEL-2
[47] = test system: OVCAR-3
[48] = test system: HCT-116
[49] = test system: HT-29
[50] = test system: HOP-62
[51] = test system: SN12C
[52] = test system: OVCAR-8
[53] = test system: NCI-H226
[54] = test system: UO-31
[55] = test system: SK-MEL-28
[56] = test system: M14
[57] = test system: TK-10
[58] = test system: CCRF-CEM
[59] = test system: HL-60
[60] = test system: DMS-114
[61] = test system: M19-MEL
[62] = test system: SNB-78
[63] = test system: KM-20L2
[64] = test system: LXFL 529
[65] = test system: DMS-273

Measured: GI50

O=C1c2ccccc2-c2c1c1ccccc1c(=O)n2-c1ccccc1
27.9 µM: [26]
inactive: [1] 13.1 µM | [2] 13.2 µM | [3] 15.8 µM | [4] 9.66 µM | [5] 9.18 µM | [6] 23.3 µM | [7] > 100 µM | [8] 66.4 µM | [9] > 46.5 µM | [10] 8.36 µM | [11] 19.3 µM | [12] 18.2 µM | [13] 14.6 µM | [14] 2.86 µM | [15] > 79.1 µM | [16] > 60.1 µM | [17] 10.1 µM | [18] 5.7 µM | [19] > 100 µM | [20] 11.8 µM | [21] 9.66 µM | [22] 26.9 µM | [23] 5.09 µM | [24] 9.1 µM | [25] 68.5 µM | [27] 6.56 µM | [28] 11.1 µM | [29] 3.07 µM | [30] > 81.5 µM | [31] 35.4 µM | [32] 4.59 µM | [33] > 82.4 µM | [34] > 100 µM | [35] 16.6 µM | [36] 13.1 µM | [37] 13.8 µM | [38] 14.4 µM | [39] > 62.5 µM | [40] 11.6 µM | [41] 45.5 µM | [42] 5.48 µM | [43] > 100 µM | [44] 4.91 µM | [45] 59.7 µM | [46] 20.4 µM | [47] 14.4 µM | [48] 4.17 µM | [49] > 31.5 µM | [50] 4.26 µM | [51] 16.4 µM | [52] 5.79 µM | [53] 12.2 µM | [54] 5.64 µM | [55] > 100 µM | [56] 47.2 µM | [57] 11.7 µM | [58] > 100 µM | [59] > 33 µM

[N-]=[N+]=NC1(c2ccccc2)C(=O)c2cccc3c2N(CCC3)C1=O (configuration not stated)
inactive: [60] 44.5 µM | [2] 92.9 µM | [61] 60.7 µM | [5] 72.3 µM | [9] 88.3 µM | [12] 27 µM | [13] 43.4 µM | [14] 55.8 µM | [16] 27.7 µM | [17] 34.5 µM | [18] 97.5 µM | [19] 27.7 µM | [62] 45.1 µM | [63] > 100 µM | [22] 33.6 µM | [23] 54.1 µM | [24] 94.2 µM | [27] 92.3 µM | [28] 92.7 µM | [29] > 100 µM | [32] > 100 µM | [33] 32.3 µM | [34] 36 µM | [35] 54.6 µM | [36] 31.8 µM | [37] 84.9 µM | [64] 56.9 µM | [40] 49.7 µM | [41] > 100 µM | [43] 31.8 µM | [46] > 100 µM | [47] 29.9 µM | [49] 47.4 µM | [50] > 100 µM | [54] 18.1 µM | [55] > 100 µM | [56] 36.9 µM | [59] 21.4 µM

COC1=C(OC)C(O)(c2ccccc2)C1=O (configuration not stated)
inactive: [1] > 100 µM | [2] > 100 µM | [61] > 100 µM | [5] > 100 µM | [6] > 100 µM | [65] > 100 µM | [12] > 100 µM | [13] > 100 µM | [17] > 100 µM | [18] > 100 µM | [62] > 100 µM | [22] > 100 µM | [23] > 100 µM | [24] > 100 µM | [27] > 100 µM | [32] > 100 µM | [33] > 100 µM | [34] > 100 µM | [35] > 100 µM | [37] > 100 µM | [40] > 100 µM | [41] > 100 µM | [43] > 100 µM | [49] > 100 µM | [50] > 100 µM | [52] > 100 µM | [54] > 100 µM | [55] > 100 µM | [56] > 100 µM | [57] 22.2 µM | [58] > 100 µM | [59] > 100 µM

O=C1C=CC(=O)c2c(O)c(N(CCCl)CCCl)c(Cl)c(O)c21
5.45 µM: [26]
inactive: [1] > 9.71 µM | [2] > 10 µM | [3] 4.71 µM | [4] 4.59 µM | [5] 5.73 µM | [6] > 8.91 µM | [7] 4.31 µM | [8] > 8.91 µM | [9] 3.94 µM | [10] 6.25 µM | [11] 5.07 µM | [12] 3.74 µM | [13] 6.4 µM | [14] 4.49 µM | [15] 4.28 µM | [16] 4.79 µM | [17] > 10 µM | [18] > 10 µM | [19] > 8.39 µM | [20] 4.66 µM | [21] 4.56 µM | [22] 2.98 µM | [23] 4.13 µM | [24] 5.46 µM | [25] 4.49 µM | [27] 5.02 µM | [28] > 6.07 µM | [29] 4.54 µM | [30] 5.47 µM | [31] 3.75 µM | [32] > 5.2 µM | [33] 3.3 µM | [34] 4.51 µM | [35] 6.15 µM | [36] 7.8 µM | [37] > 6.68 µM | [38] 4.15 µM | [39] 4.37 µM | [40] 5.07 µM | [41] > 7.21 µM | [42] 6.89 µM | [43] > 5.31 µM | [44] 5.24 µM | [45] > 8.63 µM | [46] 4.78 µM | [47] 4.74 µM | [48] 4.26 µM | [49] 5.38 µM | [50] > 9.48 µM | [51] > 6.68 µM | [52] 4.51 µM | [53] > 9.66 µM | [54] > 5.75 µM | [55] > 5.6 µM | [56] 4.37 µM | [57] 3.35 µM | [58] 1.25 µM | [59] > 6.05 µM

CC(C)OC(=O)c1cc(NC(=S)OC(C)C)ccc1Cl
inactive: [1] 25.2 µM | [2] 37 µM | [3] 23 µM | [4] 17.3 µM | [5] 22.9 µM | [6] 7.8 µM | [7] 17.1 µM | [8] > 41.6 µM | [9] 14.6 µM | [10] 17.1 µM | [11] 20.9 µM | [12] 13.2 µM | [13] 13.8 µM | [14] 23.9 µM | [15] 23.1 µM | [16] 30.4 µM | [17] 18.5 µM | [18] 27 µM | [19] 24.6 µM | [20] 15.1 µM | [21] 15.3 µM | [22] 18.4 µM | [23] 22.8 µM | [24] 26.9 µM | [25] 17.2 µM | [27] > 39 µM | [28] 16.1 µM | [29] 23.4 µM | [30] 23.7 µM | [31] 28.4 µM | [32] 22.3 µM | [33] 21.1 µM | [34] 28.6 µM | [35] 25.9 µM | [36] 19.6 µM | [37] 28.8 µM | [38] 18.2 µM | [39] 33.6 µM | [40] 20.5 µM | [41] 25.1 µM | [42] 20.7 µM | [43] 11.9 µM | [44] 14.8 µM | [45] 30.1 µM | [46] 22.4 µM | [47] 25.6 µM | [48] 20.8 µM | [49] 16.5 µM | [50] 90.4 µM | [51] 13.4 µM | [52] 26.4 µM | [53] 18.3 µM | [54] 20.8 µM | [55] 28.3 µM | [56] 35.6 µM | [57] 22.8 µM | [58] 39.3 µM | [59] 16.3 µM
21.6 µM: [26]
